Experimental data from article PMC12217528, “Structural basis of topoisomerase targeting by delafloxacin” (Nature Communications, 2025).

Experiments:
Assay type in all cases: biochemical
[1] = biological target: T1, DNA gyrase (GyrA subunit) (Streptococcus pneumoniae, UniProt P0A4M0+Q8DPM2); assay: supercoiled pBR322 DNA cleavage assay (cleavage complex stabilisation)
T1 construct: full-length GyrA reconstituted with GyrB; with GyrB, with DNA

[2] = biological target: T2, topoisomerase IV (ParC subunit, ParE30-ParC55 fusion) (Streptococcus pneumoniae, UniProt P72525+Q59961); assay: X-ray co-crystal structures at […] and […] Å; DNA cleavage assay with purified enzyme; set-up: ParE30-ParC55 fusion protein (ParE TOPRIM domain + ParC breakage-reunion domain), C-terminal His6; with ParE (ParE30 TOPRIM domain), with 18-mer V-site or E-site gate DNA
Target sequence in this assay (Q59961 404-647): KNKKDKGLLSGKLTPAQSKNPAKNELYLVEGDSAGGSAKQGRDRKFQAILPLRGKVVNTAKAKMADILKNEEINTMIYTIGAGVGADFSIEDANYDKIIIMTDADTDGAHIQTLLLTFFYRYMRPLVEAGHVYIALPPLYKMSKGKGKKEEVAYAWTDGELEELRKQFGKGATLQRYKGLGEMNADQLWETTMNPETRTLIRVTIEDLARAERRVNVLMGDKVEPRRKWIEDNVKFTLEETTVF
Target sequence in this assay (P72525 1-490): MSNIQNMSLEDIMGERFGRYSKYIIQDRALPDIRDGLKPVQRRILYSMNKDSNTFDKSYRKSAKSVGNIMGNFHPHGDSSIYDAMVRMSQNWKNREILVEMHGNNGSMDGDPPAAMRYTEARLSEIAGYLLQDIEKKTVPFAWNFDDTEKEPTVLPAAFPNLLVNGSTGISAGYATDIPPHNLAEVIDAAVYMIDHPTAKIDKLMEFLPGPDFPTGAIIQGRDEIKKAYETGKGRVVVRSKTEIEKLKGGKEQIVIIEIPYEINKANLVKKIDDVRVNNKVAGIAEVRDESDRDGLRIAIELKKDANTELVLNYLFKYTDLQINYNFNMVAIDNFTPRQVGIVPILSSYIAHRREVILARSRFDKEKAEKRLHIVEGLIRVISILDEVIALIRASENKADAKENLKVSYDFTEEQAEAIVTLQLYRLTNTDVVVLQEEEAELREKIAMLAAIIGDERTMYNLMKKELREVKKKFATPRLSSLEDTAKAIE

[3] = biological target: T2, topoisomerase IV (ParC subunit, ParE30-ParC55 fusion); assay: supercoiled pBR322 DNA cleavage assay (cleavage complex stabilisation); set-up: ParE30-ParC55 fusion protein; with ParE (ParE30 TOPRIM domain), with DNA
Target sequence in this assay (P72525 1-490): as above
Target sequence in this assay (Q59961 404-647): as the sequence (Q59961 404-647) above

T1 sequence (Q8DPM2 whole entry): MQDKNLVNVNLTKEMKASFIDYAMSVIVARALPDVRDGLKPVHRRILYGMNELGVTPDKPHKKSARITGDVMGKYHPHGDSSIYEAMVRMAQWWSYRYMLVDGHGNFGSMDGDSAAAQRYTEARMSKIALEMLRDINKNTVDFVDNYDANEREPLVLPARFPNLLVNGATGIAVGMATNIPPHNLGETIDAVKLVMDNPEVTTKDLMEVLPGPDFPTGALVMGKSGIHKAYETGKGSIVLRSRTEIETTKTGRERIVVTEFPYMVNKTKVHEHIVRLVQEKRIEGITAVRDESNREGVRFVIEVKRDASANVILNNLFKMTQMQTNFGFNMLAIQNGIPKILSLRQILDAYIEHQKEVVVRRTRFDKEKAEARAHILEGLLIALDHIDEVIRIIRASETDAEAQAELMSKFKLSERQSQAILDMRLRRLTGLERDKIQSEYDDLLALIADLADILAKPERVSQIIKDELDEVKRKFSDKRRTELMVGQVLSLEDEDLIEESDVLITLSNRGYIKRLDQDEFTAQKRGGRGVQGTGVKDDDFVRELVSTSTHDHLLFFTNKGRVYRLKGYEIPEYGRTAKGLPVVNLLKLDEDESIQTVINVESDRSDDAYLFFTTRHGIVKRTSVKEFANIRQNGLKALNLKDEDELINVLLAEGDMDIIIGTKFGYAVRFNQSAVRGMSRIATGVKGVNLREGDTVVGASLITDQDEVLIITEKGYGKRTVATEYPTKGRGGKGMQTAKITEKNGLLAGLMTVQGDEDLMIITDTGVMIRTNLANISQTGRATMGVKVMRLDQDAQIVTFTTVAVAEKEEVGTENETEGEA
T1 sequence (P0A4M0 whole entry): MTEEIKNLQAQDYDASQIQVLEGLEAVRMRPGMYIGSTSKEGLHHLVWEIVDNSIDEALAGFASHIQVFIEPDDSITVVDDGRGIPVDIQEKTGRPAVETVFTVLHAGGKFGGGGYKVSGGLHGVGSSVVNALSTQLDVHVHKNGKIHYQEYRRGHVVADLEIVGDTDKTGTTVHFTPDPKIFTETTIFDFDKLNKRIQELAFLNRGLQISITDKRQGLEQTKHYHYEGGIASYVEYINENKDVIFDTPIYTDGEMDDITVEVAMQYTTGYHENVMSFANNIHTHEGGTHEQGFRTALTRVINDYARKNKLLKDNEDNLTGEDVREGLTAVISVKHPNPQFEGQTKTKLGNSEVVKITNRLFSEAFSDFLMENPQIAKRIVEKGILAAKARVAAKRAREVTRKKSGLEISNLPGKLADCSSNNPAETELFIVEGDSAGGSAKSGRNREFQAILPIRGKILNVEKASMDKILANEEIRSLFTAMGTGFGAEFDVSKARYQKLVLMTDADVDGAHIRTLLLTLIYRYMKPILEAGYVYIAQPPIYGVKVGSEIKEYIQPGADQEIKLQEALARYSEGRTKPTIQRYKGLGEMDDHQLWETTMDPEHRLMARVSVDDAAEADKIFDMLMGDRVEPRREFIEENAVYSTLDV

Row | SMILES | supercoiled pBR322 DNA cleavage assay (cleavage complex stabilisation) [1] | X-ray co-crystal structures at 2.0 and 2.4 Å; DNA cleavage assay with purified e [2] [µM] | supercoiled pBR322 DNA cleavage assay (cleavage complex stabilisation) [3] [µM]
1 | Nc1nc(-n2cc(C(=O)O)c(=O)c3cc(F)c(N4CC(O)C4)c(Cl)c32)c(F)cc1F [Delafloxacin] | 2.5–5.0 µM | 0.12 | –
2 | C[C@H]1COc2c(N3CCN(C)CC3)c(F)cc3c(=O)c(C(=O)O)cn1c23 [Levofloxacin] | – | – | 2.5
